Read-outs that look alike come from different tables or passages of the source. Starred links: 1 amine or outer side, 2 acyl side, 3 side chain; linkers in the order of their positions; H or OH if unused. Positions of bridges follow the written chain, without caps; N, C: chain ends. Residues, ends and D or L forms follow the SMILES beside them. Chains are numbered I, II in the order given. X2 = C[C@@H](CNC(=O)N[C@@H](C)CNC(=O)N[C@@H](C)CNC(=O)N[C@@H](C)CNC(=O)[*:2])NC(=O)NC[C@H](CCC(=O)O)NC(=O)NC[C@H](Cc1ccc(O)cc1)N[*:1]; X1 = C[C@@H](CNC(=O)N[C@@H](C)CNC(=O)[*:2])NC(=O)NC[C@H](C)N[*:1]
Key:
[1] = tested on: fasted normal mice (C57BL/6J); assay: Intraperitoneal glucose tolerance test (IPGTT) in fasted normal mice; type: in vivo, mouse; settings: for AUC: IPGTT 5 min (Fig 4a), blood glucose AUC 0-120 min
Description: In a second study, an IPGTT was performed 30 min after i.v. injections of 1, 14 and the vehicle (Fig. 4b). […] A further IPGTT study was done with a glucose challenge after 2 h of the dosing to investigate the prolonged activity of hybrids 14, 22 and 23 (Fig. 4c).
Fig. 4 IPGTT studies in mice. a–d Intraperitoneal glucose tolerance test (IPGTT) at different time after dosing in fasted normal mice (C57BL/6J, male, 20–25 g). Dosage: 200 μg kg^−1 (50 nmol kg^−1) i.v. Formulation: 20 μg mL^−1 in PBS 1×. IPGTT: glucose 2 g kg^−1 i.p. at T0. a IPGTT after 5 min (n = 4). b IPGTT after 30 min (n = 6). c IPGTT after 2 h (n = 6). d IPGTT after 4 h (n = 3). Area under the curve (AUC) of the corresponding IPGTT curve. Data are mean ± SEM. […] Source data are provided as a Source Data file
After the acclimation period (at least 5 days), mice (male C57BL/6J mice (Charles River laboratories) 6 weeks old, 20–25 g) were randomized into groups according to their body weight. The mice were fasted for 6 h prior being acutely treated via i.v. route (5 µg per mouse i.v. (200 μg kg^−1, 50 nmol kg^−1)) formulated at 20 µg mL^−1 in PBS 1×. The IPGTTs were performed (glucose 2 g kg^−1 i.p.) 5 min, 30 min, 2 h or 4 h after dosing and blood glucose was measured at different time points after the glucose challenge.

[2] = tested on: normal mice (C57BL/6J); assay: Blood glucose study in normal fed mice; type: in vivo, mouse; set-up: key to In vivo activity (indicator): + active; +++: + + + more active; settings: for In vivo activity (indicator): mice, 50 nmol kg−1 i.v.; for time after dosing for which the blood glucose decrease is preserved / effect on blood glucose concentration: normal fed C57BL/6J mice, n = 3, 5 μg per mouse (50 nmol kg−1) i.v.; for effect on blood glucose concentration: monitored 6 h
Description: In the first study, we evaluated the effect of the analogues on the blood glucose concentration of normal mice (Fig. 3). The fed mice were treated with the analogues and their blood glucose concentration was monitored before and after dosing for 6 h. […] Indeed, a decrease of blood glucose concentration is observed after 30 min and the effect is preserved for 4 h after dosing.
Fig. 3 Blood glucose study in mice. a–c Blood glucose concentration in normal mice (C57BL/6J, male, 20–25 g, n = 3) before and after dosing: 5 μg per mouse (50 nmol kg^−1) i.v. Formulation: 20 μg mL^−1 in PBS 1×. The dosing was done at T0. Data are mean ± SEM. […] Source data are provided as a Source Data file
After the acclimation period (at least 5 days), mice (male C57BL/6J mice (Charles River laboratories) 8 weeks old, 20–25 g) were randomized into 10 groups (n = 3 per group) according to their body weight. They were acutely treated via i.v. route at 10 am (5 µg per mouse). Blood glucose was measured before dosing and at 30 min, 1, 2, 4, 6 h after dosing in fed conditions.

[3] = molecular target: T1, mouse GLP-1 receptor (Mus musculus, UniProt O35659); settings: for Potency (%), percentage of potency compare to GLP-1-G^2: cAMP production, from EC50
T1 sequence (O35659 22-463): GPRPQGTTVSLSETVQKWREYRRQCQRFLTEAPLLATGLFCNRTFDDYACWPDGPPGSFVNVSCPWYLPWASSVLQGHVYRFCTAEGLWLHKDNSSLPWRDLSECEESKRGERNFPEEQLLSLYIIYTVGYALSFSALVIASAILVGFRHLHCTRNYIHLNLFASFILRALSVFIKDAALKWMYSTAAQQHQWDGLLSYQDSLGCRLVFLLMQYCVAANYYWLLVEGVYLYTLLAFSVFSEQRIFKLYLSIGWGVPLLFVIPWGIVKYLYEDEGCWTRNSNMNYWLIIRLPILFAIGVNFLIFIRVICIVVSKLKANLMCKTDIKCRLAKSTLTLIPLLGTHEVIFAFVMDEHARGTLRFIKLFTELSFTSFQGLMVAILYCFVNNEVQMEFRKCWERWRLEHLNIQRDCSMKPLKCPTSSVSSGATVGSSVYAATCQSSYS

[4] = molecular target: T1, mouse GLP-1 receptor; assay: cell-based
[5] = in vitro; settings: mouse, plasma; for remaining at 20 min, 5 µM / remaining at 1 h, 5 µM: pH 7.4, % remaining analogue
Description: The oligomer was then diluted 1/50 with a solution of plasma/PBS pH 7.4 (1:1) to afford a final concentration of 5 µM and incubated at 37 °C (4 µL of the stock solution was diluted with 196 µL of plasma/PBS, pH 7.4, 1:1). Each compound was also incubated in the absence of plasma (196 µL of H2O/PBS, pH 7.4, 1:1). At the indicated time (20 min and 60 min) an aliquot of 70 µL was removed from each experimental reaction and pipetting into 175 µL of acetonitrile at 0 °C to quench the reaction (t = 0 min was determined using the reaction without plasma). The samples were frozen at –80 °C before analysis. The frozen samples were defrosted, stirred with a vortex 5 min and finally centrifuged 5 min at 16 °C (1500 × g). The supernatant was analysed by LC-MS. The time course of oligomer degradation was determined by integrating the area of the peak in the extracted ion chromatogram.
Supplementar y Figur e 2 : Mouse plasma degradation assay. […] Data are
mean ± SEM, n = 4. Source data are provided as a Source Data file (T able 2 tab).
Supplementar y Figur e 3.
Data are mean ± SEM, n = 3.
Source data are provided as a Source Data file […]

[6] = NEP 24.11 degradation assay; settings: NEP 24.11 (isolated enzyme), pH 8, % remaining analogue, NEP 24.11 20 μg mL−1, […], pH 8.0, 20 °C, HPLC; time 6 h; replicate 1
Description: Stock solutions of the oligomers were prepared at a concentration of 400 µM in a solution of 50 mM HEPES buffer, 50 mM NaCl, 0.05% Tween-80, pH 8.0. Stock solution of NEP 24.11 was prepared at a concentration of 100 µg mL^−1 in water. Stability of oligomers to NEP 24.11 was assessed by conducting protease reaction in a 96-well plates at 20 °C. […] Each compound was also incubated in the absence of the enzyme (12 µL of HEPES buffer and 38 µL of oligomer). […] A portion of the quenched reaction solution was analysed by HPLC. The time course of peptide degradation was determined by integrating the area of each peak in a series of HPLC traces.

[7] = fasted C57BL/6J mice, 200 μg kg−1 (50 nmol kg−1) i.v., glucose 2 g kg−1 i.p., n = 6
[8] = read-out: Top (best-fit value), variable slope four-parameter fit, unconstrained, 14: experiment 1

With CC[C@H](C)[C@H](NC(=O)[C@H](Cc1ccccc1)NC(=O)NC[C@H](C)NC(=O)NC[C@H](C)NC(=O)NC[C@H](C)NC(=O)[C@H](CCC(N)=O)NC(=O)CNC(=O)[C@H](CCC(=O)O)NC(=O)[C@H](CC(C)C)NC(=O)[C@H](Cc1ccc(O)cc1)NC(=O)[C@H](CO)NC(=O)[C@H](CO)NC(=O)[C@@H](NC(=O)[C@H](CC(=O)O)NC(=O)[C@H](CO)NC(=O)[C@@H](NC(=O)[C@H](Cc1ccccc1)NC(=O)[C@@H](NC(=O)CNC(=O)[C@H](CCC(=O)O)NC(=O)CNC(=O)[C@@H](N)Cc1c[nH]cn1)[C@@H](C)O)[C@@H](C)O)C(C)C)C(=O)N[C@@H](C)C(=O)N[C@@H](Cc1c[nH]c2ccccc12)C(=O)N[C@@H](CC(C)C)C(=O)N[C@H](C(=O)N[C@@H](CCCCN)C(=O)NCC(=O)N[C@@H](CCCNC(=N)N)C(=O)NCC(N)=O)C(C)C [compound 14, GG2[A^uA^uA^u]^18-21] (I: H-HGEGTFTSDVSSYLEGQ / II: FIAWLVKGRG-NH2; linker I:C-II:N via X1) the AUC ([1]; mean of n = 4, 2018-03-08) was 16833 mg·min/dL, the AUC ([1]; single animal, 1st of group) was 18150 mg·min/dL and the AUC ([1]; single animal, 2nd of group) was 13233 mg·min/dL. For the same molecule, the AUC ([1]; single animal, 3rd of group) was 18503 mg·min/dL, the AUC ([1]; single animal, 4th of group) was 17445 mg·min/dL and the “activity in IPGTT 4 h after dosing” value ([1]; fasted C57BL/6J mice, 200 μg kg−1 (50 nmol kg−1) i.v., glucose 2 g kg−1 i.p., n = 3) was “still active after 6 h of the treatment”. For the same molecule, the “activity in IPGTT 5 min after dosing” value ([1]; fasted C57BL/6J mice, 200 μg kg−1 (50 nmol kg−1) i.v., glucose 2 g kg−1 i.p., n = 4) was “both analogues were active”, the “activity in IPGTT 30 min after dosing” value [1, 7] was “demonstrated full activity” and the “activity in IPGTT 2 h after dosing” value [1, 7] was “good control of the blood glucose concentration during the IPGTT”. For the same molecule, the “In vivo activity (indicator)” value [2] was “+++”, the “time after dosing for which the blood glucose decrease is preserved” value [2] was 4 h and the “effect on blood glucose concentration” value [2] was “showed an improved efficacy compare to the native peptide 1”. For the same molecule, the “Potency (%), percentage of potency compare to GLP-1-G^2” value (shortened to “Potency (%), percentage”) [3] was 6%, the EC50 [4] was 4.1 nM and the Emax ([4]; read-out: Top (best-fit value), fit with BOTTOM = 0%, 14: experiment 1) was 116%. It also gave an Emax ([4]; read-out: Top (best-fit value), fit with BOTTOM = 0%, 14 experiment 2) of 117%, an Emax ([4]; read-out: Top (best-fit value), fit with BOTTOM = 0%, 14 experiment 3) of 100% and an Emax ([4]; read-out: Top (best-fit value), fit with BOTTOM = 0%, 14 experiment 4) of 116%. For the same molecule, the Emax [4, 8] was 103%, the Emax ([4]; read-out: Top (best-fit value), variable slope four-parameter fit, unconstrained, 14 experiment 2) was 116% and the Emax ([4]; read-out: Top (best-fit value), variable slope four-parameter fit, unconstrained, 14 experiment 3) was 99.8%. The Emax ([4]; read-out: Top (best-fit value), variable slope four-parameter fit, unconstrained, 14 experiment 4) was 119%, the half-life ([5]; pH 7.4) was 38 min and the remaining at 20 min, 5 µM [5] was 66.9%. For the same molecule, the remaining at 1 h, 5 µM [5] was 30.5%.

For CC[C@H](C)[C@H](NC(=O)[C@H](Cc1ccccc1)NC(=O)NC[C@H](C)NC(=O)NC[C@H](C)NC(=O)NC[C@H](C)NC(=O)NC[C@H](C)NC(=O)NC[C@H](CCC(=O)O)NC(=O)NC[C@H](Cc1ccc(O)cc1)NC(=O)[C@H](Cc1ccc(O)cc1)NC(=O)[C@H](CO)NC(=O)[C@H](CO)NC(=O)[C@@H](NC(=O)[C@H](CC(=O)O)NC(=O)[C@H](CO)NC(=O)[C@@H](NC(=O)[C@H](Cc1ccccc1)NC(=O)[C@@H](NC(=O)CNC(=O)[C@H](CCC(=O)O)NC(=O)CNC(=O)[C@@H](N)Cc1c[nH]cn1)[C@@H](C)O)[C@@H](C)O)C(C)C)C(=O)N[C@@H](C)C(=O)N[C@@H](Cc1c[nH]c2ccccc12)C(=O)N[C@@H](CC(C)C)C(=O)N[C@H](C(=O)N[C@@H](CCCCN)C(=O)NCC(=O)N[C@@H](CCCNC(=N)N)C(=O)NCC(N)=O)C(C)C [compound 23, GG2[Y^uE^uA^uA^uA^uA^u]^14-21] (I: H-HGEGTFTSDVSSY / II: FIAWLVKGRG-NH2; linker I:C-II:N via X2), the “activity in IPGTT 2 h after dosing” value [1, 7] was “good control of the blood glucose concentration during the IPGTT”, the “In vivo activity (indicator)” value [2] was “+++” and the “time after dosing for which the blood glucose decrease is preserved” value [2] was 4 h. The “effect on blood glucose concentration” value [2] was “showed an improved efficacy compare to the native peptide 1”, the “LogEC50 (best-fit value)” value [3] was -8.466 and the “Potency (%), percentage” value [3] was 7%. For the same molecule, the EC50 [4] was 3.4 nM, the Emax [4, 8] was 100% and the half-life at 5 µM ([5]; pH 7.4) was 39 min. For the same molecule, the remaining at 1 h, 5 µM [5] was 24.8%.

For CC[C@H](C)[C@H](NC(=O)[C@H](Cc1ccccc1)NC(=O)[C@H](CCC(=O)O)NC(=O)[C@H](CCCCN)NC(=O)[C@H](C)NC(=O)[C@H](C)NC(=O)[C@H](CCC(N)=O)NC(=O)CNC(=O)[C@H](CCC(=O)O)NC(=O)[C@H](CC(C)C)NC(=O)[C@H](Cc1ccc(O)cc1)NC(=O)NC[C@H](C)NC(=O)NC[C@H](C)NC(=O)N[C@@H](CNC(=O)[C@H](CO)NC(=O)[C@@H](NC(=O)[C@H](Cc1ccccc1)NC(=O)[C@@H](NC(=O)CNC(=O)[C@H](CCC(=O)O)NC(=O)CNC(=O)[C@@H](N)Cc1c[nH]cn1)[C@@H](C)O)[C@@H](C)O)CC(=O)O)C(=O)N[C@@H](C)C(=O)N[C@@H](Cc1c[nH]c2ccccc12)C(=O)N[C@@H](CC(C)C)C(=O)N[C@H](C(=O)N[C@@H](CCCCN)C(=O)NCC(=O)N[C@@H](CCCNC(=N)N)C(=O)NCC(N)=O)C(C)C [compound 2, GG2[D^uαA^uA^u]^9-12], the remaining at 6 h, […] [6] was 39.2%, the “effect on blood glucose concentration” value [2] was “showed no activity” and the “LogEC50 (best-fit value)” value [3] was -7.897. The “Potency (%), percentage” value [3] was 2%, the EC50 [4] was 13 nM and the Emax [4, 8] was 77.7%. For the same molecule, the half-life ([5]; pH 7.4) was 17 min, the remaining at 20 min, 5 µM [5] was 38% and the remaining at 1 h, 5 µM [5] was 21.2%.
